Assay results reported in article PMC8453901, “GLPG1205, a GPR84 Modulator: Safety, Pharmacokinetics, and Pharmacodynamics in Healthy Subjects” (Clinical Pharmacology in Drug Development, 2021).

Legend:
[1] = Study 2 part 2: pharmacokinetics with 250-mg loading dose then 50 mg once daily; format: in vivo, human
Method: During study 2, GLPG1205 50 mg or matching placebo was administered as capsules in the morning 30 minutes after the start of a standard breakfast. Subjects were kept in‐house from the evening of day –1 to ≈26 hours after the first dose (day 2), and from the evening of day 13 until day 15. Administration of the study drug was performed daily at the clinical pharmacology unit. Subjects returned for a follow‐up visit at day 35.
In part 1, 24 healthy male subjects were matched into 3 cohorts based on body weight: Cohort A comprised 8 subjects aged 65–74 years, inclusive; cohort B comprised 8 subjects aged ≥75 years (1:1 weight matched with cohort A subjects [± 5 kg]); and cohort C comprised 8 subjects aged 18 to 50 years, inclusive (1:1 weight matched with cohort A subjects [± 5 kg]). All cohorts received GLPG1205 50 mg once daily or matching placebo, in a 3:1 ratio, for 14 days. In the open‐label second part of study 2, 8 subjects (cohort D) aged 65 to 74 years, inclusive, were included to characterize the PK profile after a loading dose of GLPG1205 250 mg on day 1 followed by multiple doses of GLPG1205 50 mg once daily from day 2 to day 14.
In the SAD part of study 1, blood samples (2 mL) for PK assessments were obtained before dosing and at multiple time points on the day of study drug administration (before dosing and 0.5, 1, 2, 4, 6, 8, and 12 hours after dosing) and at 24, 48, and 72 hours after dosing. The predose sample for the next dose level was also used in PK analysis (168 hours after dosing). […] In the MAD part of study 1, blood samples (2 mL) were obtained on days 1, 2, 4, 5, 6, 8, 10, 12, 14, 15, 16, 17, and 18 and at follow‐up (approximately 7 to 10 days after the last dose). These PK blood samples were taken after dosing (1, 2, 4, 6, 8, 12, and 24 hours) on day 1; before dosing on days 4, 6, 8, and 10; and after dosing (1, 2, 4, 6, 8, 12, 24, 72, and 96 hours) on day 14. The following additional PK blood samples were also taken: cohort C, before dosing on day 5; and cohorts D and E, before dosing on day 12. Urine samples were obtained from fractions collected over 6‐ or 12‐hour periods after dosing on days –1, 1, 2, 13, 14, and 15; samples obtained on days –1 and 13 were for cytochrome P450 (CYP) induction analysis only. In study 2, blood samples (2 mL) were obtained on days 1, 2, 5, 7, 10, 14, 15, 17, and 20 and at follow‐up (approximately 21 days after end of study medication administration). Blood samples were taken before dosing and at 1, 2, 4, 6, 8, 12, and 24 hours after drug administration on days 1 and 14 and before dosing on other sampling days.
GLPG1205 plasma concentrations were determined using a validated liquid chromatography with tandem mass spectrometry method. After a protein precipitation with methanol, a chromatographic separation was performed on a Kinetex C18 column (50×3.0 mm, 2.6 μm; Phenomenex, Torrance, California) set at 40°C by using a Nexera high‐performance liquid chromatography (HPLC) system (Shimadzu, Kyoto, Japan) or an Infinity HPLC system (Agilent Technologies, Diegem, Belgium) in isocratic elution mode. A QTRAP6500, QTRAP4000, or API4000 mass spectrometer (AB Sciex, Nieuwerkerk aan den Ijssel, The Netherlands) equipped with a TurboIonSpray probe operated in the multiple reaction monitoring in positive mode was used for quantification. The calibration curves in plasma were linear over the range of 1 to 1000 ng/mL with 1/x^2 as weighting factor. The limit of quantification of the assay in the plasma samples was set at 1 ng/mL.
PK calculations were performed using Phoenix WinNonlin 6.2 (Pharsight Corporation, Palo Alto, California). […] AUC0‐inf was calculated from the area under the plasma concentration‐time curve from time 0 until the time corresponding with the last observed quantifiable concentration + Ct/λz, where Ct was the last observed quantifiable concentration and λz the first‐order terminal rate constant. […]

[2] = set-up: method as in PMID 32902984; conditions: mouse, rat, and dog; cited from earlier work
[3] = set-up: method as in PMID 32902984; conditions: rats, up to 100 mg/kg/d; cited from earlier work
CYP2B6 = tested on: CYP2B6; set-up: method as in data on file at Galapagos; conditions: in vitro; ref data on file at Galapagos; cited from earlier work
CYP2C19 = tested on: CYP2C19; set-up: method as in data on file at Galapagos, 8, 9; conditions: 100 mg once daily, healthy male subjects; ref data on file at Galapagos, 8, 9; cited from earlier work

O=c1nc(OC[C@@H]2COCCO2)cc2n1CCc1cc(C#CC3CC3)ccc1-2 [GLPG1205, 9‐cyclopropylethynyl‐2‐((S)‐1‐[1,4]dioxan‐2‐ylmethoxy)‐6,7‐dihydropyrimido[6,1‐a]isoquinolin‐4‐one]
steady-state exposure with loading dose vs cohort A without ([1]; 250-mg loading dose + 13 days 50 mg once daily vs 14 days 50 mg once daily): no difference in steady‐state exposure
quantifiability in plasma after last dose ([1]; 144 hours after the last dose on day 14, all subjects): quantifiable in plasma up to day 20
time of maximal mean GLPG1205 concentration ([1]; after 250-mg loading dose on day 1): 12 hours after dosing
day by which steady state in plasma concentration was reached ([1]; after the loading dose of 250 mg): ≤ 2 days
Rac ([1]; cohort D 65-74 y, 250-mg loading dose then 50 mg once daily, day 14, mean (CV%)): 1.35 (22.8)
Rac point estimate (CI), cohort D vs cohort A ([1]; day 14, ratio of cohort D relative to cohort A expressed as a percentage): <.0001 22.11 (18.46‐26.48)
subjects with GLPG1205 below the limit of quantification ([1]; follow-up visit day 35, 504 hours after the last dose): 5 of 8
Cmax ([1]; human, plasma, oral, cohort D 65-74 y, 250-mg loading dose then 50 mg once daily, day 14, mean (CV%)): 2630 ng/mL
AUC(0-inf) ([1]; human, plasma, oral, cohort D 65-74 y, 250-mg loading dose then 50 mg once daily, day 14, mean (CV%), N = 6): 250 µg·h/mL
half-life ([1]; human, plasma, oral, cohort D 65-74 y, 250-mg loading dose then 50 mg once daily, day 14, mean (CV%), N = 7, read-out: t1/2,λz (converted)): 55.4 h
AUC(0-t) ([1]; human, plasma, oral, cohort D 65-74 y, 250-mg loading dose then 50 mg once daily, day 14, mean (CV%), read-out: AUC0–24h): 53.7 µg·h/mL
concentration at 24 h ([1]; human, plasma, oral, cohort D 65-74 y, 250-mg loading dose then 50 mg once daily, day 14, mean (CV%), read-out: C24h): 2360 ng/mL
concentration at 504 h ([1]; human, plasma, oral, day 35, 504 hours after the last dose, subjects in whom still quantifiable, read-out: plasma GLPG1205 level at follow-up): 2.01 to 21.6 ng/mL
time to reach steady-state exposure ([1]; single 250-mg loading dose): 1 days
oral absolute exposure [2]: ≥ 68%
dose-proportionality of exposure [3]: increased dose‐proportionally
inhibition of CYP2B6 (CYP2B6): weak inhibition
effect on exposure of CYP2C19 (CYP2C19): did not affect the exposure
